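Assay format: 96-well plates, 48-hour exposure. GI50 = concentration required for 50% inhibition of growth.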 Active and inactive are the calls of the source. No stated cut-off is given here; in the data, active = GI50 up to about 1.1 µM and inactive = higher.
Columns and labels:
Assay in all cases: growth of human tumour cells (NCI), 48 h
[1] = test system: 786-0
[2] = test system: RPMI-8226
[3] = test system: SF-539
[4] = test system: U-251
[5] = test system: KM12
[6] = test system: LOX IMVI
[7] = test system: UACC-257
[8] = test system: CCRF-CEM
[9] = test system: HCC 2998
[10] = test system: NCI-H522
[11] = test system: SF-268
[12] = test system: Malme-3M
[13] = test system: ACHN
[14] = test system: SN12C
[15] = test system: OVCAR-5
[16] = test system: DU-145
[17] = test system: SK-MEL-5
[18] = test system: HCT-15
[19] = test system: SR
[20] = test system: K562
[21] = test system: NCI-H226
[22] = test system: SW-620
[23] = test system: SK-OV-3
[24] = test system: M14
[25] = test system: PC-3
[26] = test system: SNB-75
[27] = test system: MDA-MB-231
[28] = test system: A498
[29] = test system: A549
[30] = test system: T47D
[31] = test system: Hs-578T
[32] = test system: COLO 205
[33] = test system: NCI-H23
[34] = test system: MCF7
[35] = test system: MDA-MB-435
[36] = test system: NCI/ADR-RES
[37] = test system: EKVX
[38] = test system: HOP-62
[39] = test system: HL-60
[40] = test system: TK-10
[41] = test system: UO-31
[42] = test system: RXF 393
[43] = test system: HCT-116
[44] = test system: UACC-62
[45] = test system: OVCAR-8
[46] = test system: CAKI-1
[47] = test system: SK-MEL-28
[48] = test system: SNB-19
[49] = test system: SF-295
[50] = test system: OVCAR-3
[51] = test system: HOP-92
[52] = test system: MDA-N
[53] = test system: HT-29
[54] = test system: NCI-H460
[55] = test system: MOLT-4
[56] = test system: IGROV-1
[57] = test system: OVCAR-4
[58] = test system: SK-MEL-2

CCCCc1ccc(-n2c(C)c(COC(=O)NC)c(COC(=O)NC)c2C)cc1
GI50 [1]: 4.08 µM (inactive) | GI50 [2]: 4.47 µM (inactive) | GI50 [3]: 4.37 µM (inactive) | GI50 [4]: 4.92 µM (inactive) | GI50 [5]: 12.7 µM (inactive) | GI50 [6]: 4.65 µM (inactive) | GI50 [7]: 10.6 µM (inactive) | GI50 [8]: 2.92 µM (inactive) | GI50 [9]: 12.7 µM (inactive) | GI50 [10]: 2.64 µM (inactive) | GI50 [11]: 4.81 µM (inactive) | GI50 [12]: 6.07 µM (inactive) | GI50 [13]: 2.11 µM (inactive) | GI50 [14]: 3.54 µM (inactive) | GI50 [15]: 4.78 µM (inactive) | GI50 [16]: 6.98 µM (inactive) | GI50 [17]: 11.4 µM (inactive) | GI50 [18]: 6.18 µM | GI50 [19]: 0.818 µM (active) | GI50 [20]: 6.03 µM (inactive) | GI50 [21]: 1.05 µM (active) | GI50 [22]: 6.46 µM (inactive) | GI50 [23]: 3.76 µM (inactive) | GI50 [24]: 6.12 µM (inactive) | GI50 [25]: 10.9 µM (inactive) | GI50 [26]: 7.73 µM (inactive) | GI50 [27]: 4.9 µM (inactive) | GI50 [28]: 1.1 µM (active) | GI50 [29]: 6.08 µM (inactive) | GI50 [30]: 5.66 µM (inactive) | GI50 [31]: 16.6 µM (inactive) | GI50 [32]: 7.21 µM (inactive) | GI50 [33]: 7.28 µM (inactive) | GI50 [34]: 4.76 µM (inactive) | GI50 [35]: 12.5 µM (inactive) | GI50 [36]: 5.55 µM (inactive) | GI50 [37]: 13 µM (inactive) | GI50 [38]: 8.97 µM (inactive) | GI50 [39]: 3.56 µM (inactive) | GI50 [40]: 2.28 µM (inactive) | GI50 [41]: 2.7 µM (inactive) | GI50 [42]: 2.84 µM (inactive) | GI50 [43]: 4.08 µM (inactive) | GI50 [44]: 2.29 µM (inactive) | GI50 [45]: 4.16 µM (inactive) | GI50 [46]: 2.86 µM (inactive) | GI50 [47]: 19.1 µM (inactive) | GI50 [48]: 13.9 µM (inactive) | GI50 [49]: 8.61 µM (inactive) | GI50 [50]: 12.1 µM (inactive) | GI50 [51]: 2.74 µM (inactive) | GI50 [52]: 13.2 µM (inactive) | GI50 [53]: 11.1 µM (inactive) | GI50 [54]: 3.81 µM (inactive)

CC1(C)C2C=CC1(C)C1(CC2)OCCO1 (stereo unspecified)
GI50 [1]: > 100 µM (inactive) | GI50 [2]: > 100 µM (inactive) | GI50 [3]: > 100 µM (inactive) | GI50 [4]: > 100 µM (inactive) | GI50 [5]: > 100 µM (inactive) | GI50 [6]: > 100 µM (inactive) | GI50 [7]: > 100 µM (inactive) | GI50 [8]: > 100 µM (inactive) | GI50 [9]: > 100 µM (inactive) | GI50 [11]: > 100 µM (inactive) | GI50 [55]: > 100 µM (inactive) | GI50 [12]: > 100 µM (inactive) | GI50 [13]: > 100 µM (inactive) | GI50 [14]: > 100 µM (inactive) | GI50 [15]: > 100 µM (inactive) | GI50 [16]: > 100 µM (inactive) | GI50 [56]: > 100 µM (inactive) | GI50 [18]: > 100 µM | GI50 [19]: > 100 µM (inactive) | GI50 [20]: > 100 µM (inactive) | GI50 [21]: > 100 µM (inactive) | GI50 [22]: > 100 µM (inactive) | GI50 [23]: > 100 µM (inactive) | GI50 [24]: > 100 µM (inactive) | GI50 [25]: > 100 µM (inactive) | GI50 [26]: 66.1 µM (inactive) | GI50 [27]: > 100 µM (inactive) | GI50 [28]: > 100 µM (inactive) | GI50 [30]: > 100 µM (inactive) | GI50 [31]: > 100 µM (inactive) | GI50 [57]: > 100 µM (inactive) | GI50 [32]: > 100 µM (inactive) | GI50 [33]: > 100 µM (inactive) | GI50 [34]: > 100 µM (inactive) | GI50 [35]: > 100 µM (inactive) | GI50 [36]: > 100 µM (inactive) | GI50 [38]: > 100 µM (inactive) | GI50 [39]: > 100 µM (inactive) | GI50 [40]: > 100 µM (inactive) | GI50 [41]: > 100 µM (inactive) | GI50 [42]: > 100 µM (inactive) | GI50 [43]: > 100 µM (inactive) | GI50 [44]: > 100 µM (inactive) | GI50 [45]: > 100 µM (inactive) | GI50 [47]: > 100 µM (inactive) | GI50 [48]: > 100 µM (inactive) | GI50 [58]: > 100 µM (inactive) | GI50 [49]: > 100 µM (inactive) | GI50 [50]: > 100 µM (inactive) | GI50 [52]: > 100 µM (inactive) | GI50 [53]: > 100 µM (inactive) | GI50 [54]: > 100 µM (inactive)

— ChEMBL document CHEMBL1201862, “PubChem BioAssay data set” (2004)
